# B1: RNAsi A: free enzyme RNAse A (protein, UniProt P61823 27-150, looked up)
# Ribonuclease pancreatic: KETAAAKFERQHMDSSTSAASSSNYCNQMMKSRNLTKDRCKPVNTFVHESLADVQAVCSQKNVACKNGQTNCYQSYSTMSITDCRETGSSKYPNCAYKTTQANKHIIVACEGNPYVPVHFDASV
# B2: HA-Ac-RNAsi A: hyaluronic acid aldehyde derivative conjugated to RNAse A at the N-terminal end (conjugate, UniProt P61823 27-150, looked up)
# Ribonuclease pancreatic: B1 Ribonuclease pancreatic
# modifications: hyaluronic acid aldehyde conjugate
# notes: hyaluronic acid aldehyde derivative conjugated to RNAse A at the N-terminal end
# Assays:
# [1] = glucose levels in blood, streptozocin-induced diabetes type I model; type: in vivo, rat; settings: for effect on glucose level in the blood: diabetic rats (streptozocin 70 mg/Kg), conjugate subcutaneous
# Experimental: 3.00 g of the aldehyde derivative of HA (activated intermediate) according to Example 1 are dissolved at a concentration of 10 mg/ml in an acid environment by the presence of phosphoric acid at a temperature of 60° C. for 2 hours. 4×10^−5 moles of insulin, 4×10^−1 moles of cyanoborohydride are added to the hydrolyzed product previously cooled and the pH is regulated to 6.0. After 24 h of reaction, the adduct is purified and analyzed via dimensional exclusion chromatography; the relative chromatogram is visible in FIG. 8. The activity in vivo of the conjugate is evaluated on a model of induced diabetes type I in a rat after administration of streptozocin at a dose of 70 mg/Kg.
# The HA-Insulin conjugate is administered subcutaneously at a dose of 5 or 20 μg of equivalent insulin. The biological activity of the conjugate is tested through the determination of the glucose levels in the blood of animals, measured by means of commercial kits (OneTouch® II, LifeScan, Johnson & Johnson), The control consists of healthy rats (group 1) and rats with induced diabetes treated with insulin (group 2). The results are illustrated in FIG. 9.
# [2] = cited from earlier work
# [3] = test system: cyclic 2′,3′-cytidine monophosphate (2′,3′-CMC); test: residual enzymatic activity of RNAse A, free or bound to HA (absorption increase at 287 nm); type: biochemical; settings: hydrolysis of 2′,3′-CMC, absorption at 287 nm
# Experimental: 1.00 g of the aldehyde derivative of HA according to Example 1 are dissolved at a concentration of 8 mg/ml in an acid environment by the presence of phosphoric acid at a temperature of 50° C. for 2 hours. The pH is regulated to 6.0 and 2×10^−5 moles of RNAse A and 2×10^−1 moles of cyanoborohydride are added to the hydrolyzed product previously cooled. At this pH the reaction takes place specifically at the N-terminal end of the protein. After 24 h of reaction, the adduct is purified by dialysis against water and then freeze-dried. The corresponding GPC chromatogram registered under the conditions described in Example 14 can be found in FIG. 7. This type of conjugate is optimally suitable for measuring in vitro the residual activity of the enzyme, using a specific kit based on the evaluation of the absorption increase at 287 nm with time, determined by hydrolysis of the specific synthetic substrate cyclic 2′,3′-cytidine monophosphate (2′,3′-CMC).
# A comparison of the residual activity of the enzyme, free or bound to HA, produces the following results: […]
molecule,measurement,setting,value
"insulin: free insulin, control treatment of diabetic rats [reference compound]",effect on glucose level in the blood,[1]; 5 or 20 μg equivalent insulin,"sudden decrease in the glucose level in the blood, which however returns to high values in a relatively rapid time scale"
HA-Insulin: hyaluronic acid aldehyde derivative conjugated to insulin,effect on glucose level in the blood,[1]; 5 or 20 μg equivalent insulin,"exerted more slowly, but has a considerably prolonged duration with time"
same,effectiveness relative to the conjugated drug (insulin),"[1]; diabetic rats, subcutaneous",doubling the effectiveness
same,time span to bring glucose to a lower level than the group treated with insulin alone,"[1]; diabetic rats, subcutaneous, 5 or 20 μg equivalent insulin",≤ 5 h
same,duration for which the glucose lowering effect is maintained,"[1]; diabetic rats, subcutaneous, duration of the experiment",24 h
Calcitonin,absorption half-life,[2],10 to 15 min
same,elimination half-life,[2],50 to 80 min
B1,% Relative enzymatic activity,[3],100%
B2,% Relative enzymatic activity,[3],95.23%

# Reference: patent US9034624B2, “Process for the synthesis of conjugates of glycosaminoglycanes (GAG) with biologically active molecules, polymeric conjugates and relative uses thereof” (FIDIA FARMACEUTICI S.P.A., priority 2009, dated 2015)
